According to PubChem BioAssay AID179 (DTP/NCI, 2004):
Active and inactive are the calls of the source.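 Rule for the calls: active = compounds giving half or more protection of infected cells from virus-caused growth loss, again on retest; inactive = the rest.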 Where a SMILES comes first, the peptide text is derived from it. The star is where a group is joined. Boc = CC(C)(C)OC(=O)*

System: CEM cells HIV-1 protection, formazan growth assay
Experiment: NCI AIDS Antiviral Assay
Conditions: for IC50: measured here: growth of uninfected CEM cells
In short: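 CEM (human) cells, HIV-1 infected vs uninfected, 5-point dosing, formazan growth read-out. Retest threshold 50% protection.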

Cc1c(S(=O)(=O)c2ccccc2)c(N)n(Cc2ccccc2)c1C
EC50: > 200 µM | IC50: 74.1 µM

CCOC(=O)c1sc2nc(-c3ccccc3)nn2c1CBr
EC50: > 200 µM | IC50: 1.07 µM

CC1CC(C)(C)C2=NCCN21 (stereo unspecified)
EC50: > 1620 µM | IC50: > 1620 µM

O=c1ccn(C2OC(COC3CCCCO3)C(OC3CCCCO3)C2OC2CCCCO2)c(=O)n1-c1ccccc1 (stereo unspecified)
EC50: > 200 µM | IC50: > 200 µM

O=S(=O)(c1cc(Cl)ccc1Cl)N1CCN(c2cccc(Cl)c2)CC1
outcome: inactive

CSCCC(NC(=O)C(CC(C)C)NC(=O)CNC(=O)OC(C)(C)C)C(=O)N(C)C (stereo not drawn) (Boc-Gly-Leu-Met-NMe2; configuration not given here)
EC50: > 200 µM | IC50: > 200 µM

N[C@@H](CSSc1ccccc1C(=O)O)C(=O)O
EC50: > 200 µM | IC50: > 200 µM

C=CC1(C)CCC2C(=CCC3C(C)(COC4OC(CO)C(O)C(O)C4O)C(O)CCC23C)C1 (stereo unspecified)
EC50: > 200 µM | IC50: > 100 µM

COC(=O)c1cc(=O)nc2n1C1OC(CO)C(O)C1O2 (stereo unspecified)
EC50: > 200 µM | IC50: > 200 µM

O=C1OC(c2ccccc2)=N/C1=C/c1ccc2c(c1)OCO2
EC50: > 24.5 µM | IC50: > 24.5 µM

CC(C)(C)C(=O)/C=C/c1ccc(Br)cc1
outcome: inactive

O=C1/C(=C/c2ccccc2)CN(C(=O)Oc2ccccc2)C/C1=C\c1ccccc1
outcome: inactive

O=C(c1ccccc1)c1nc2ccc(Cl)cc2c2c1Cc1ccccc1-2
EC50: > 2.95 µM | IC50: > 2.95 µM

CCOc1ccc(N=Cc2ccc3cc(C)ccc3n2)cc1
outcome: inactive

CC(=O)/C=C/CCC1CCC(=O)C1(C)C(=O)OC(C)(C)C (stereo unspecified)
EC50: > 115 µM | IC50: 39.8 µM

CC1CC/C(=[N+](/C)Nc2ccc([N+](=O)[O-])cc2[N+](=O)[O-])C2CCC(C(C)C(=O)O)C=C12 (stereo unspecified)
outcome: inactive

O=C(Nc1cccc(C(F)(F)F)c1)C(Cl)=C(Cl)Cl
EC50: > 200 µM | IC50: 2.34 µM

c1ccc(COc2ncccc2C2SCCCS2)cc1
EC50: > 200 µM | IC50: > 200 µM

CCCNC(=O)C(C)(Cl)C(=O)c1ccccc1O (stereo unspecified)
EC50: > 479 µM | IC50: 209 µM

C/C(=N\NC(C)(C)C)c1sc(-c2nc(C)c(/C(C)=N/NC(C)(C)C)s2)nc1C
EC50: > 44.7 µM | IC50: > 44.7 µM

COC(=O)C1C(c2ccccc2)=N[C@@H](c2ccccc2)[C@H]1C(=O)OC (stereo partly specified)
EC50: > 11.2 µM | IC50: > 11.2 µM

C=CC(C)(O)CN(C=O)Cc1ccccc1 (stereo unspecified)
EC50: > 589 µM | IC50: > 589 µM

CC(=O)c1cccc(NC(=O)C(=O)C(C(=O)NN)c2ccccc2)c1 (stereo unspecified)
EC50: > 55 µM | IC50: > 55 µM

c1ccc2c(c1)CCN1CCc3ccccc3C1C2 (stereo unspecified)
EC50: > 200 µM | IC50: 36.3 µM

CCOC(=O)C(=O)/C=C(\C)Nc1c(NC2OCC(OC(C)=O)C(OC(C)=O)C2OC(C)=O)nc(SC)[nH]c1=O (stereo unspecified)
EC50: > 87.1 µM | IC50: > 87.1 µM

COc1cc(Nc2nc3cc(C)ccc3nc2-c2ccccc2)cc(OC)c1OC
EC50: > 200 µM | IC50: 34.7 µM

O=C(O)CCC(CCC(=O)O)(C(=O)O)c1ccccc1
EC50: > 5620 µM | IC50: 4470 µM

CC(C)(C)c1cc2c(O)c(c1)C(c1ccccc1)c1cc(C(C)(C)C)cc(c1O)Cc1cc(C(C)(C)C)cc(c1O)C(c1ccccc1)c1cc(C(C)(C)C)cc(c1O)C2 (stereo unspecified)
EC50: > 50.1 µM | IC50: > 50.1 µM

O=S(=O)(c1ccccc1)N1CCCC(c2ccccc2)CC1 (stereo unspecified)
outcome: inactive

CN1C(=O)c2ccccc2Cc2c(NCc3ccccc3)ncnc21
EC50: > 89.1 µM | IC50: 19.1 µM

CCCCCCCCCCCCC(Br)C(=O)SCCNC(=O)CCNC(=O)[C@@H](O)C(C)(C)COP(=O)(O)OP(=O)(O)OCC1OC(n2cnc3c(N)ncnc32)C(O)C1OP(=O)(O)O (stereo partly specified)
outcome: inactive

O=C(n1c(=O)n(-c2ccc([N+](=O)[O-])cc2)c(=O)n1C(=O)C(Cl)(Cl)Cl)C(Cl)(Cl)Cl
EC50: > 200 µM | IC50: > 200 µM

CC(C)N1CNC(=O)C12CCN(CC1COc3ccccc3O1)CC2 (stereo unspecified)
EC50: > 200 µM | IC50: > 200 µM

Cn1c(=O)c(C(=O)NC(=O)OCc2ccccc2)cn(CCCOC(=O)CCCCCCCCC(=O)OCCCn2cc(C(=O)NC(=O)OCc3ccccc3)c(=O)n(C)c2=O)c1=O
EC50: > 21.4 µM | IC50: > 21.4 µM

O=S(CC(O)c1ccccc1)c1ccccc1 (stereo unspecified)
EC50: > 200 µM | IC50: 23.4 µM

CN(C)CC1CCC/C(=C\c2ccc(OC(=O)/C=C/c3ccc(Cl)cc3)cc2)C1=O (stereo unspecified)
EC50: > 50.1 µM | IC50: 2.19 µM

CC/C(=C(\c1ccccc1)c1ccc(OCCN(C)C)cc1)c1ccccc1
EC50: > 83.2 µM | IC50: 14.8 µM

O=C(CC1Sc2ccccc2NC1=O)Nc1ccccc1[N+](=O)[O-] (stereo unspecified)
EC50: > 724 µM | IC50: 70.8 µM

CO/C(=N\N=C\c1ccc(OC)cc1OC)c1ccncc1
EC50: > 229 µM | IC50: 105 µM

N#Cc1c(O)c(C=Nc2ccc(Cl)cc2)c(=O)n2c1[nH]c1ccccc12
EC50: > 100 µM | IC50: > 100 µM

COC(=O)c1cc2c(s1)C(=O)c1ccccc1-2
EC50: > 2.24 µM | IC50: > 2.24 µM

COc1ccc(-c2cn3c(nc4ccccc43)c(C)n2)cc1
EC50: > 200 µM | IC50: > 200 µM

CC1=NNB(O)c2sccc21
EC50: > 562 µM | IC50: 145 µM

COc1ccc(-c2cn3c([nH]c(=O)c4cc(Br)ccc43)c2C#N)cc1
EC50: > 200 µM | IC50: 182 µM

OCCN(CCO)c1nc(N2CCCCC2)c2nc(N(CCO)CCO)nc(N3CCCCC3)c2n1
outcome: inactive

COC(=O)/C(=N\N)C(C(=O)C(=O)Nc1cc(Cl)ccc1Cl)c1nc2ccc([N+](=O)[O-])cc2[nH]c1=O (stereo unspecified)
EC50: > 182 µM | IC50: 83.2 µM

CCCCCCCCCCCCCCCCCCNc1nc(=O)n(C2CC(OC(C)=O)C(COP(=O)(O)OCC3CCC(n4ccc(NC(=O)CCCCCCCCCCCCCCC)nc4=O)O3)O2)cc1F (stereo unspecified)
EC50: 10 µM | IC50: 44.7 µM

C/C=C(/C)C(=O)O[C@H](C[C@@H](C)[C@H]1CC(c2ccoc2)OC1=O)[C@@]1(C)C(=O)CCC2O[C@]21C (stereo partly specified)
EC50: > 200 µM | IC50: > 200 µM

CCOC(=O)C(=O)Nc1ccc(Cl)c(C(F)(F)F)c1
outcome: inactive

O=C(/C=C/c1ccc(O)c(O)c1)OCC(OC(=O)/C=C/c1ccc(O)c(O)c1)C(=O)O (stereo unspecified)
EC50: > 200 µM | IC50: 28.2 µM

COc1cccc(C2ON=C(c3ccccc3)N2C23CC4CC(CC(C4)C2)C3)c1 (stereo unspecified)
EC50: > 200 µM | IC50: 58.9 µM

Cc1cc(S(=O)(=O)Nc2n[nH]c(N)n2)c(SCC(=O)O)cc1Cl
EC50: > 200 µM | IC50: > 200 µM

COC(=O)c1ncn(C(C(=O)OC)C(=O)OC)c1O
EC50: > 200 µM | IC50: > 200 µM

COC(=O)C1CCC(=O)N1CN(C(C)=O)c1ccccc1Cl (stereo unspecified)
EC50: > 200 µM | IC50: > 200 µM

O=C(OCCc1ccccc1)c1ccc2cc(O)c(O)cc2c1
EC50: > 31.6 µM | IC50: 12.9 µM

COc1ccc2c(C(=O)O)cc3cc(OC)c(OC)cc3c2c1
outcome: inactive

O=c1c2c([nH]c3nccn13)CCCC2
EC50: > 200 µM | IC50: > 200 µM

COc1ccc2c(c1)CCC1=C/C(=N\NC(N)=O)CCC12C (stereo unspecified)
EC50: > 63.1 µM | IC50: > 63.1 µM

COC(=O)c1c(C(=O)OC)c2c(C)nn3ccc1n23
EC50: > 955 µM | IC50: > 955 µM

CN(C)CCCNC(=O)c1cc(NC(=O)c2cc(NC(=O)c3cc(NC(=O)c4cccc(C(=O)Nc5cc(C(=O)Nc6cc(C(=O)Nc7cc(C(=O)NCCCN(C)C)n(C)c7)n(C)c6)n(C)c5)n4)cn3C)cn2C)cn1C
EC50: > 100 µM | IC50: > 100 µM

c1nc2nc3c(cn2n1)CCCC3
outcome: inactive
